We go through two compounds from patent US7090853B2, “Noscapine derivatives as adjuvant compositions and methods of use thereof” (Emory University, priority 1999, dated 2006).

This test concerns HL-60 cells. Put plainly: Apoptosis of HL-60 cells, DAPI staining of nuclear chromatin. Format: cell-based. The following applies: for Apoptic Cell Percentage: 24 hours; for Initiation of apoptosis: DAPI staining. The method, then: Morphological changes in the nuclear chromatin of HL-60 cells undergoing apoptosis were detected by staining with 4′,6-diamidino-2-phenylindole (DAPI). In brief, 0.5×10^6 to 3×10^6 cells were fixed with 4% glutaraledebyde, 0.2% Triton x-100, in PBS and incubated at room temperature for 10 min., then centrifuged at 1000×g for 10 min., resuspended in 20 μl 0.1% DAPI ethanol. Following 15 min, incubation at room temperature, at 10 μl aliquot was placed on a glass slide, and 400 cells per slide were scored for the incidence of apoptotic chromatin changes with a fluorescence microscope.

The mark [1] stands for this setting: 20 μM in DMSO, two trials, result for each trial shown.

As for `COc1ccc2c(c1OC)CO[C@@H]2[C@H]1c2c(cc3c(c2OC)OCO3)CCN1C` [Compound 4, 1,3-dihydro-4,5-dimethoxy-1-[1-(8-methoxy-2-methyl-6,7-methylenedioxy-1,2,3,4-tetrahydroixo-quinolinyl)]isobenzofuran], the Initiation of apoptosis result was “initiate apoptosis”. Under setting [1], the “Apoptic Cell Percentage” value amounted to 48.32%. The “Apoptic Cell Percentage” value (50 μM in DMSO) stood at 52%.
As for “1,3-dihydro-4,5-dimethoxy-1-[1-(8-methoxy-2-methyl-6,7-methylenedioxy-1,2,3,4-tetrahydroisoquinoliyl)]isobenzofuran-BH3 [Compound 3]”, the Initiation of apoptosis entry is “initiate apoptosis”. In addition, the “Apoptic Cell Percentage” value under setting [1] is listed as 37.28%. Moreover, the “Apoptic Cell Percentage” value (50 μM in DMSO) is 39%.
